# Source: patent US20160287553A1, “TRANSLATION INHIBITORS IN HIGH-DOSE CHEMO- AND/OR HIGH-DOSE RADIOTHERAPY” (DEUTSCHES KREBSFORSCHUNGSZENTRUM, priority 2013, published 2016)
# “Also recorded” adds a separate entry of the source.
# How the values were obtained:
# [1] = test system: p53; experiment: p53 protein expression by immunoblot; type: cell-based, human
# Experimental: Immunoblot analysis was carried out as previously described (Polier et al., Chem Biol. 2012; 19: 1093-1104). Briefly, 4-20×10^6 cells were treated with different reagents as indicated and lysed in RIPA buffer (50 mM Tris HCl, 137 mM NaCl, 0.5% Na Deoxycholate, 1% Triton X-100, 0.1% SDS, protease inhibitors). Proteins were separated by SDS-PAGE and transferred to a nitrocellulose membrane (Amersham Biosciences, Little Chalfon, UK) using a semi-dry blotting approach. The following antibodies were used: p53 (DO-1) antibody was purchased from Santa Cruz Biotechnology (Heidelberg, Germany). Tubulin and actin (A5441) antibodies were purchased from Sigma-Aldrich (St. Louis, USA).
# The transcription factor p53 is a major regulator of DNA damage-induced apoptosis (Lowe et al., Cell. 1993; 74: 957-967). Therefore, we investigated the effect of Roc-A on the expression level of p53.
# p53 protein expression can be regulated at the level of transcription, translation, and ubiquitination-mediated degradation (Marine & Lozano, Cell Death Differ. 2010; 17: 93-102). It has been shown that upon DNA damage p53 undergoes post-translational modifications leading to its deubiquitination and, thus, stabilization (Lee & Gu, Cell Death Differ. 2010; 17: 86-92). To investigate whether Roc-A could decrease p53 stability, we treated T cells with the proteasome inhibitor Bortezomib to block proteasome-mediated degradation.
# [2] = test system: Peripheral blood T cells; experiment: Etoposide-induced apoptotic cell death of T cells (DNA fragmentation, AnnexinV, FSC/SSC)
# Experimental: The human malignant cell lines EU-3 (acute lymphoblastic leukemia), DND-41 (T cell leukemia), Hut-78 (T cell lymphoma), SKW6.4 (B cell leukemia), Reh (acute lymphoblastic leukemia), IM-9 (Chronic myeloid leukemia), HL-60 (promyelocytic leukemia), L1236 (Hodgkin's lymphoma) and NCI-H209 (small cell lung cancer) were cultured at 37° C. with 5% CO2 in RPMI-1640 medium (Sigma-Aldrich, Munich, Germany) supplemented with 10% FCS, 100 U/ml Penicillin (Sigma-Aldrich, Munich, Germany) and 100 μg/ml Streptamycin (Sigma-Aldrich, Munich, Germany) SCLC-21H cells (small cell lung cancer) were cultured in DMEM medium (Sigma-Aldrich, Munich, Germany) supplemented with 10% FCS. Peripheral blood T lymphocytes were isolated as previously described (Klas et al., Int Immunol. 1993; 5: 625-630). B lymphocytes and NK cells were isolated by magnetic activated cell sorting using “B cell isolation kit II” (Miltenyi Biotech, Bergisch Gladbach, Germany) and “NK cell isolation kit, human” (Miltenyi Biotech, Bergisch Gladbach, Germany), respectively, according to the manufacturer's instructions. Human neutrophils were separated from peripheral blood mononuclear cells by Ficoll-Paque density centrifugation, followed by incubation in 1.05% dextran for 30 min at room temperature. Remaining erythrocytes were lysed by resuspension in ice-cold 0.2% sodium chloride solution. After 1 min ice-cold 1.6% sodium-chloride solution was added and lysis was stopped by addition of PBS and neutrophils were resuspended in medium at a concentration of 2×10^6 cells/ml. Human primary cardiomyocytes were purchased from PromoCell (Heidelberg, Germany) and cultured in Myocyte Growth Medium (PromoCell, Heidelberg, Germany). Remaining primary human cells were cultured in RPMI-1640 medium with the same conditions described above.
# Apoptotic cell death was determined by AnnexinV staining, cellular forward scatter/side scatter (FSC/SSC) profile, or DNA fragmentation. For AnnexinV staining, 2×10^5 cells were treated with different drugs for indicated time periods, washed with AnnexinV binding buffer (0.01 M Hepes, 0.14 M NaCl, 2.5 mM CaCl2), and stained with AnnexinV-FITC antibody (Immunotools, Friesoythe, Germany) and 7-amino-actinomycin D (Sigma-Aldrich, Munich, Germany) for 30 min at 4° C. The amount of AnnexinV positive cells was determined by FACS measurement. DNA fragmentation was determined according to the method of Nicoletti (Nicoletti et al., J Immunol Methods. 1991; 139: 271-279). Briefly, 2×10^5 cells were treated as indicated, washed with PBS and lysed in Nicoletti buffer (0.1% sodium citrate, 0.1% Triton X-100, 50 μg/ml propidium iodide). DNA fragmentation was determined by FACS. Apoptosis-like cells were determined by forward scatter and side scatter (FSC/SSC) index. Specific DNA fragmentation/specific AnnexinV positive cells/specific apoptosis was calculated as follows: (percentage of experimental DNA fragmentation (or Annexin V positive cells or apoptosis)−percentage of spontaneous DNA fragmentation (or Annexin V positive cells or apoptosis)/(100−percentage of spontaneous DNA fragmentation (or Annexin V positive cells or apoptosis))×100.
# [3] = test system: IM-9 (Chronic myeloid leukemia), WT p53; experiment: Etoposide-induced cell death in IM-9; type: cell-based, human; details: IM-9 (FIG. 5b)
# Experimental: (§1) DNA fragmentation was determined by FACS.
# (§2) Since Roc-A-mediated protection of non-malignant cells from DNA-damage-induced cell death is largely p53-dependent, we predicted that Roc-A would not protect cancer cells which have non-functional p53. […] 1997; 19: 243-253), Reh (Zhou et al, loc cit.), SKW6.4 (Barbarotto et al., J Cell Biochem. 2008; 104: 595-605) and NCI-H209 (Fujita et al. Int J Oncol. 1999; 15: 927-934) which have a WT p53 protein.
# [4] = test system: γ-H2AX; type: cell-based; details: Roc-A 75 nM, T cells (FIG. 2a-b)
# Experimental: DNA damage was determined by quantification of γ-H2AX foci formation and by alkaline single-cell gel electrophoresis assay (comet assay). For γ-H2AX staining, cells were treated as indicated, fixed in 3% formaldehyde and permeabilized in 90% methanol. Following storage at −20° C. overnight, cells were incubated with mouse serum to block unspecific binding and stained with antibody directed against γ-H2AX (AlexaFluor 488-coupled, 2F3 [BioLegend, Fell, Germany]), or with isotype control antibody (AlexaFluor 488-coupled [BioLegend, Fell, Germany]). The amount of γ-H2AX foci formation was determined by FACS measurement. […] Nuclei were stained with DAPI mounting medium (Dianova, Hamburg, Germany). Comet assays were carried out as previously described (Greve et al., PloS one. 2012; 7: e47185). Briefly, electrophoresis of cellular genomic DNA was performed under alkaline conditions at 4° C. The amount of DNA damage was measured by “Olive Tail Moment”. Analysis of cellular DNA damage was carried out by fluorescence microscopy, using a fully automated cell scanning system Metafer-4 (Metasystems, Altlutβheim, Germany).
# To address this question, we determined the level of the DNA-damage marker γ-H2AX, which is generated around the site of a DNA double-strand break (Rogakou et al., J Biol Chem. 1998; 273: 5858-5868).
# [5] = test system: ERK; details: Polier et al., op. cit.; cited from earlier work
# [6] = test system: cardiomyocytes; experiment: Etoposide-induced apoptosis in cardiomyocytes; type: cell-based, human; details: cardiomyocytes (FIG. 1c)
# Experimental: as §1
# Next, we asked whether Roc-A could also protect other normal primary cells from DNA damage-induced toxicity. To address this question, we examined the protective effect of Roc-A on Etoposide-treated human peripheral blood B cells, NK cells, neutrophils, cardiomyocytes and murine hematopoietic stem and progenitor cells (HSPCs).
# [7] = test system: DND-41 (T cell leukemia), p53 mutated; experiment: Etoposide-induced cell death in DND-41; type: cell-based, human; details: DND-41 (FIG. 5a)
# Experimental: as §1, §2
smiles,measurement,setting,value
"COc1ccc([C@@]23Oc4cc(OC)cc(OC)c4[C@]2(O)[C@H](O)[C@H](C(=O)N(C)C)[C@H]3c2ccccc2)cc1 [Roc-A, (1R,2R,3S,3aR,8bS)-1,8b-dihydroxy-6,8-dimethoxy-3a-(4-methoxyphenyl)-N,N-dimethyl-3-phenyl-2,3-dihydro-1H-cyclopenta[b][1]benzofuran-2-carboxamide]",Etoposide-induced p53 increase,[1]; B cells (FIG. 3d),inhibits Etoposide-induced p53 upregulation; also recorded: suppressed
same,Etoposide-induced p53 increase,[1]; NK cells (FIG. 3e),inhibits Etoposide-induced p53 upregulation; also recorded: suppressed
same,"p53 upregulation by IR, Bleomycin, Teniposide, Doxorubicin","[1]; T cells (FIG. 3b, f)","inhibits Etoposide-(a), Bleomycin-, Teniposide- and Doxorubicin-(b) induced p53 upregulation in T cells; also recorded: inhibition was also observed"
same,"Upregulation of p53, kinetic analysis","[1]; T cells, 50 μM Etoposide, 75 nM Roc-A (FIG. 3c)",could inhibit upregulation of p53 at all time-points analyzed
same,Etoposide-induced p53 protein expression,"[1]; T cells, increasing Etoposide, different concentrations of Roc-A (FIG. 3a)","inhibits Etoposide-(a), Bleomycin-, Teniposide- and Doxorubicin-(b) induced p53 upregulation in T cells; also recorded: p53 expression was blocked in a dose-dependent manner"
same,Protection of normal T cells from Etoposide-induced cell death by Roc-derivatives,"[2]; 50 μM Etoposide, 75 nM Roc-derivative, 24 h (FIG. 6b)",different levels of protection
same,"Toxicity of Etoposide, kinetic analysis","[2]; 50 μM Etoposide, different concentrations of Roc-A, indicated time-periods (FIG. 1a middle)",could reduce the toxicity of Etoposide at all measured time points
same,Reduction of Etoposide-induced cell death of normal T cells,"[2]; 24 h, increasing concentrations of Etoposide, different concentrations of Roc-A, dose-dependent (FIG. 1a left, FIG. 7)",more than 50%
same,Chemo-protective effect when Roc-A is administered after Etoposide,[2]; Roc-A added 2 and 4.5 h after Etoposide (50 μM) (FIG. 1a right),chemo-protective effect could be even seen
same,Protection of T cells from Etoposide-induced apoptotic cell death,"[2]; Roc-A with Etoposide, FIG. 1a, FIG. 7",protects T cells from Etoposide-induced apoptotic cell death in a dose- and time-dependent manner; also recorded: reduces Etoposide-induced apoptosis in T cells
same,Protection against Etoposide-induced cell death,[3],protected by Roc-A from Etoposide-induced cell death but to a lesser extent than non-malignant cells
same,Effect on Etoposide-induced γ-H2AX foci formation,[4],does not prevent Etoposide-induced increase in γ-H2AX; also recorded: did not block Etoposide-induced γ-H2AX foci formation
same,Inhibitory effect on ERK activity / activation,[5],inhibit ERK activation with different efficacies
same,Protection against Etoposide-induced apoptosis,[6],protected
same,Protection against Etoposide-induced cell death,[7],did neither protect
